Broadly, the solubility is the concentration that dissolves in the medium under given conditions. Read a high solubility as a readily soluble substance.

The nature of data set [1]: physchem. The format is physicochemical. To be noted: 25 °C, aqueous with cosolvent or surfactant or cyclodextrin, thermodynamic from solid, Solubility at 25° C. (mg/mL). As for the experimental part:
Two studies were performed to evaluate the supersaturation risks of Kleptose based formulations. […] The second study is intended to evaluate the kinetics of drug precipitation in Formulation Ib.
In this experiment, ten solutions were prepared by dissolving Kleptose and formic acid in WFI. The Kleptose concentration in all the ten solutions varied from 30 mg/mL to 250 mg/mL, while the formic acid concentration was kept constant at 1.65 mg/mL as used in the bulk solution of formulation Ib. […] Then the sample of each solution was taken and centrifuged for assay testing.

Data set [2] concerns GSPT1, Mcl-1, Bcl-2, cleaved caspase 3 in KG-1 cells. Description: KG-1 western blots, 16 h. The format is cell-based. As for the experimental part: KG-1 cells were seeded in 6 well tissue culture plates at 500,000 cells per mL, 4 mL per well. […] Cells were then washed twice with cold PBS and lysed with M-PER lysis buffer (Thermo) supplemented with 150 mM NaCl and Halt protease and phosphatase inhibitor cocktail (Thermo) on ice for 30 min. Crude lysates were clarified by centrifugation (14000 rpm, 10 min, 4° C.) and total protein quantified by BCA assay. GSPT1 (Abcam, ab49878), Mcl-1 (CST, 4572), Bcl-2 (CST, 4223), cleaved caspase 3 (CST, 9664), and GAPDH (Santa Cruz, sc-47724) levels were probed by western and imaged on a LiCor infrared imager.
In general terms: Immunoblotting shows a protein as a band on a membrane.

The test system of a further data set is BMMCs from MDS patients. Description: Ex vivo liquid culture of BMMCs from MDS patients, Compound 1 with everolimus (viable cell count). The class given is cell-based, human. As for the experimental part:
Cultures were maintained for 1 week and cell numbers were measured by viable cell count on days 1, 3 and 7 of culture.

A short description of data set [3]: physchem. To be noted: aqueous with cosolvent or surfactant or cyclodextrin.
Experimental: In the first precipitation study, four solution formulations were prepared at a Kleptose concentration of 100 mg/mL. […] Then the solutions were stored in three conditions: (1) at ambient condition with mild mixing; (2) at ambient condition without mixing; (3) at 2-8° C. without mixing.
The corresponding drug concentration of each formulation was 300, 400, and 500 μg/mL so that the supersaturation ratio was about 5× for all the three formulations. […] In the study, the same experiments were repeated twice to evaluate the reproducibility of the results.
For the next data set, the system named is BON cells. Description: Signaling and proliferation of BON cells, CellTiter-Glo assay (2D and 3D plates). The class given is cell-based. The conditions noted are these: BON1, single agent.
Data set [4] relates to primary human tumor xenograft model GA0087. Description: HuPrime gastric cancer xenograft GA0087 model, in vivo efficacy. The conditions noted are these: single agent. The arrangement: species or system female BALB/c nude mice. From the text: Tumor fragments from stock mice were harvested and used for inoculation into mice. Each mouse was inoculated subcutaneously at the right flank with primary human tumor xenograft model GA0087 tumor fragment (P7, 2-3 mm in diameter) for tumor development. […] After tumor inoculation, the animals were checked daily for morbidity and mortality. At the time of routine monitoring, the animals were checked for any effects of tumor growth and treatments on normal behavior such as mobility, food and water consumption, body weight gain/loss, eye/hair matting and any other abnormal effect. Death of euthanized mouse was recorded. All groups were terminated on Day 40. Three tumors in each group, with tumor volume near median of each group were collected. Plasma of the same mice were collected. For comparison among three or more groups, one-way ANOVA was performed followed by multiple comparison procedures. All data were analyzed using SPSS 18.0. P values <0.05 is considered to be statistically significant.

In data set [5] the test system is human QGP1 pancreatic somatostatinoma xenografts. To be noted: mouse, in vivo.
Experimental: Treatment began on Day 1 in nine groups of mice (n=10) with established subcutaneous QGP1 tumors. […] Tumors were measured using calipers twice each week to the end of the study on Day 52. Three tumors at or near the group median tumor volume 2000 mm^3 endpoint were sampled from each group.
Treatment efficacy was based on tumor growth inhibition (TGI), defined as the difference between the final (Day 52) median tumor volumes (MTVs) of treated and control mice. The results were analyzed utilizing the Mann-Whitney U-test, and were deemed statistically significant at P≤0.05. Drug tolerability was assessed by body weight measurements and by frequent observation of treated animals.
The test system of data set [6] is caspase-3 activation and GSPT1 degradation in BMMCs from a MDS patient. Description: Apoptosis and GSPT1 degradation by flow cytometry 24 hours after exposure. The format is cell-based, human. The conditions noted are these: 24 hours exposure. (In general: A flow cytometer gives signals particle by particle.)
Data set [7] in a line: physchem. The format is physicochemical. From the text:
“Compound 1, Form C” or “Form C” or “API”” in the Examples herein refers to polymorph Form C of 2-(4-chlorophenyl)-N-((2-(2,6-dioxopiperidin-3-yl)-1-oxoisoindolin-5-yl)methyl)-2,2-difluoroacetamide. “Compound 1, Form A” or “Form A” in the Examples herein refers to polymorph Form A of 2-(4-chlorophenyl)-N-((2-(2,6-dioxopiperidin-3-yl)-1-oxoisoindolin-5-yl)methyl)-2,2-difluoroacetamide.

The test system of data set [8] is GSPT1 expression, mTOR activation, Mcl-1 expression and Caspase-3 cleavage in AML cells. The experiment in a line: Immunoblot analysis of AML cells treated with Compound 1 and everolimus. The format is cell-based. The conditions noted are these: AML cell lines HNT-34 and KG1, Compound 1 alone. From the text: Whole cell extracts were collected and subjected to immunoblot analysis.

Values after ≈ are worked out from the molar mass of the structure shown.

For the compound `O=C1CCC(N2Cc3cc(CNC(=O)C(F)(F)c4ccc(Cl)cc4)ccc3C2=O)C(=O)N1` (centres unmarked) [Compound 1, 2-(4-chlorophenyl)-N-((2-(2,6-dioxopiperidin-3-yl)-1-oxoisoindolin-5-yl)methyl)-2,2-difluoroacetamide], the solubility at 72 h in the data set “physchem [1]” amounted to 86 µg/mL (≈ 186 µM). Further, the Mcl-1 levels result in [2] is “reduce levels of Mcl-1”. Also, the “effect of single agent” value in the data set on BMMCs from MDS patients (37 nM) is listed as “No effect”. Also, the “reduction of cell numbers” value in the data set on BMMCs from MDS patients (37 nM, after 3 days of culture) was roughly 70%. Further, the cell number decrease result in the data set on BMMCs from MDS patients (higher concentrations) is given as “up to 95%”. In “physchem [3]”, this compound showed a solubility at 2 days of 135 µg/mL (≈ 292 µM), a solubility at 9 days of 115 µg/mL (≈ 249 µM) and a solubility at 34 days of 98 µg/mL (≈ 212 µM). Besides, in the data set with BON cells, the “standalone activity on proliferation” value is recorded as “no standalone activity”. For the same compound, in data set [4], the “tumor growth inhibition (mean tumor volume)” value is “showed tumor growth inhibition”. The anti-tumor activity entry in data set [4] (1.25 mg/kg and 2.5 mg/kg) was “moderate anti-tumor activity”. The anti-tumor activity result in data set [4] (5 mg/kg) is recorded as “prominent anti-tumor activity”. Moreover, in data set [5], the weight loss is on record as 1.6-6.8%. For the same compound, in data set [6], the “Caspase 3 activation” value is “activated” and the GSPT1 degradation result was “degraded”. Besides, in “physchem [7]”, the Hygroscopicity result is recorded as “Not hygroscopic” and the “Solid State Stability” value is listed as “DS is physically stable under all storage conditions”. In the data set “physchem [7]” (pH 5), the “chemical stability in solution” value was “chemically instable in solution above pH 5”. This compound also showed a solubility in “physchem [7]” (water) of no more than 1 µg/mL. The “GSPT1 degradation, Caspase-3 cleavage and Mcl-1 loss” value in data set [8] was “sufficient to induce robust GSPT1 degradation, Caspase-3 cleavage, and Mcl-1 loss”.
